Assay results: patent US11083725B2 (priority 2014, dated 2021)

Test system: NHBE cells
Assay: Biolog metabolic array: substrate use by NHBE cells with or without CA09 infection
Type: cell-based, human
Settings: for Substrate use, 590 nm absorbance normalized to zero hour, 0 hr: Biolog PMM2, 0 hr; for Substrate use, 590 nm absorbance normalized to zero hour, 1 hr: Biolog PMM2, 1 hr; for Substrate use, 590 nm absorbance normalized to zero hour, 5 hr: Biolog PMM2, 5 hr; for Substrate use, 590 nm absorbance normalized to zero hour, 7 hr: Biolog PMM2, 7 hr
[1] = Control (uninfected) NHBE cells
[2] = Virus (CA09-infected, MOI 1) NHBE cells
[3] = Virus: CA09-infected NHBE cells, MOI 1, Biolog PMM2
[4] = Virus (CA09-infected NHBE cells, MOI 1)

Row | Compound | 590 nm absorbance normalized to zero hour (substrate use), 1 hr [1] | 590 nm absorbance normalized to zero hour (substrate use), 2 hr [1] | 590 nm absorbance normalized to zero hour (substrate use), 3 hr [1] | 590 nm absorbance normalized to zero hour (substrate use), 4 hr [1] | 590 nm absorbance normalized to zero hour (substrate use), 6 hr [1] | 590 nm absorbance normalized to zero hour (substrate use), 8 hr [1] | 590 nm absorbance normalized to zero hour (substrate use), 9 hr [1] | 590 nm absorbance normalized to zero hour (substrate use), 10 hr [1] | 590 nm absorbance normalized to zero hour (substrate use), 11 hr [1] | Substrate use, 590 nm absorbance normalized to zero hour, 1 hr [1] | Substrate use, 590 nm absorbance normalized to zero hour, 5 hr [1] | Substrate use, 590 nm absorbance normalized to zero hour, 7 hr [1] | 590 nm absorbance normalized to zero hour (substrate use), 1 hr [3] | 590 nm absorbance normalized to zero hour (substrate use), 2 hr [3] | 590 nm absorbance normalized to zero hour (substrate use), 3 hr [3] | 590 nm absorbance normalized to zero hour (substrate use), 4 hr [3] | 590 nm absorbance normalized to zero hour (substrate use), 5 hr [3] | 590 nm absorbance normalized to zero hour (substrate use), 6 hr [3] | 590 nm absorbance normalized to zero hour (substrate use), 7 hr [3] | 590 nm absorbance normalized to zero hour (substrate use), 8 hr [3] | further results
1 | OC[C@H]1O[C@@H](O[C@H]2[C@H](O)[C@@H](O)[C@H](O)O[C@@H]2CO)[C@H](O)[C@@H](O)[C@@H]1O [D-Cellobiose] | 1.74 | 2.30 | 2.69 | 2.91 | 4.52 | 4.59 | 5.13 | 5.20 | 5.51 | 1.74 | 3.55 | 4.26 | 1.58 | 2.09 | 2.38 | 2.49 | 2.81 | 3.00 | 3.14 | 3.31 | 590 nm absorbance normalized to zero hour (substrate use), 0 hr [1]: 1.00; Substrate use, 590 nm absorbance normalized to zero hour, 0 hr [1]: 1.00; 590 nm absorbance normalized to zero hour (substrate use), 0 hr [2]: 1.00; 590 nm absorbance normalized to zero hour (substrate use), 1 hr [2]: 1.58; 590 nm absorbance normalized to zero hour (substrate use), 2 hr [2]: 2.09; 590 nm absorbance normalized to zero hour (substrate use), 3 hr [2]: 2.38; 590 nm absorbance normalized to zero hour (substrate use), 4 hr [2]: 2.49; 590 nm absorbance normalized to zero hour (substrate use), 5 hr [2]: 2.81; 590 nm absorbance normalized to zero hour (substrate use), 6 hr [2]: 3.00; 590 nm absorbance normalized to zero hour (substrate use), 7 hr [2]: 3.14; 590 nm absorbance normalized to zero hour (substrate use), 8 hr [2]: 3.31; 590 nm absorbance normalized to zero hour (substrate use), 9 hr [2]: 3.54; 590 nm absorbance normalized to zero hour (substrate use), 10 hr [2]: 3.69; 590 nm absorbance normalized to zero hour (substrate use), 11 hr [2]: 4.06; 590 nm absorbance normalized to zero hour (substrate use), 0 hr [3]: 1.00; 590 nm absorbance normalized to zero hour (substrate use), 9 hr [3]: 3.54; 590 nm absorbance normalized to zero hour (substrate use), 10 hr [3]: 3.69; 590 nm absorbance normalized to zero hour (substrate use), 11 hr [3]: 4.06
2 | O=C(CO)[C@@H](O)[C@H](O)[C@H](O)COP(=O)(O)O [D-Fructose-6-Phosphate] | 1.03 | 0.90 | 0.59 | 0.97 | 0.23 | 0.49 | 0.97 | 0.92 | 0.64 | 1.03 | 0.54 | 1.00 | 0.59 | 0.75 | 0.87 | 0.94 | 1.11 | 1.18 | 1.27 | 1.35 | 590 nm absorbance normalized to zero hour (substrate use), 1 hr [2]: 0.59; 590 nm absorbance normalized to zero hour (substrate use), 2 hr [2]: 0.75; 590 nm absorbance normalized to zero hour (substrate use), 3 hr [2]: 0.87; 590 nm absorbance normalized to zero hour (substrate use), 4 hr [2]: 0.94; 590 nm absorbance normalized to zero hour (substrate use), 5 hr [2]: 1.11; 590 nm absorbance normalized to zero hour (substrate use), 6 hr [2]: 1.18; 590 nm absorbance normalized to zero hour (substrate use), 7 hr [2]: 1.27; 590 nm absorbance normalized to zero hour (substrate use), 8 hr [2]: 1.35; 590 nm absorbance normalized to zero hour (substrate use), 9 hr [2]: 1.49; 590 nm absorbance normalized to zero hour (substrate use), 10 hr [2]: 1.55; 590 nm absorbance normalized to zero hour (substrate use), 11 hr [2]: 1.65; 590 nm absorbance normalized to zero hour (substrate use), 9 hr [3]: 1.49; 590 nm absorbance normalized to zero hour (substrate use), 10 hr [3]: 1.55; 590 nm absorbance normalized to zero hour (substrate use), 11 hr [3]: 1.65
3 | O=C(CO)[C@@H](O)[C@H](O)[C@H](O)CO [D-Fructose] | 2.31 | 2.22 | 1.77 | 2.00 | 1.51 | 3.38 | 4.01 | 3.99 | 4.24 | 2.31 | 2.59 | 3.18 | 0.44 | 0.58 | 0.71 | 0.79 | 1.00 | 1.09 | 1.17 | 1.26 | 590 nm absorbance normalized to zero hour (substrate use), 1 hr [4]: 0.44; 590 nm absorbance normalized to zero hour (substrate use), 2 hr [4]: 0.58; 590 nm absorbance normalized to zero hour (substrate use), 3 hr [4]: 0.71; 590 nm absorbance normalized to zero hour (substrate use), 4 hr [4]: 0.79; 590 nm absorbance normalized to zero hour (substrate use), 5 hr [4]: 1.00; 590 nm absorbance normalized to zero hour (substrate use), 6 hr [4]: 1.09; 590 nm absorbance normalized to zero hour (substrate use), 7 hr [4]: 1.17; 590 nm absorbance normalized to zero hour (substrate use), 8 hr [4]: 1.26; 590 nm absorbance normalized to zero hour (substrate use), 9 hr [4]: 1.43; 590 nm absorbance normalized to zero hour (substrate use), 10 hr [4]: 1.52; 590 nm absorbance normalized to zero hour (substrate use), 11 hr [4]: 1.70; 590 nm absorbance normalized to zero hour (substrate use), 9 hr [3]: 1.43; 590 nm absorbance normalized to zero hour (substrate use), 10 hr [3]: 1.52; 590 nm absorbance normalized to zero hour (substrate use), 11 hr [3]: 1.70
4 | C[C@@H](O)[C@H](O)[C@H](O)[C@@H](O)C=O [D-Fucose] | 1.61 | 1.96 | 2.02 | 2.15 | 2.11 | 2.49 | 2.69 | 2.78 | 2.97 | 1.61 | 2.65 | 2.19 | 0.66 | 0.33 | 0.67 | 0.64 | 0.62 | 0.65 | 0.65 | 0.60 | 590 nm absorbance normalized to zero hour (substrate use), 0 hr [1]: 1.00; Substrate use, 590 nm absorbance normalized to zero hour, 0 hr [1]: 1.00; 590 nm absorbance normalized to zero hour (substrate use), 0 hr [4]: 1.00; 590 nm absorbance normalized to zero hour (substrate use), 1 hr [4]: 0.66; 590 nm absorbance normalized to zero hour (substrate use), 2 hr [4]: 0.33; 590 nm absorbance normalized to zero hour (substrate use), 3 hr [4]: 0.67; 590 nm absorbance normalized to zero hour (substrate use), 4 hr [4]: 0.64; 590 nm absorbance normalized to zero hour (substrate use), 5 hr [4]: 0.62; 590 nm absorbance normalized to zero hour (substrate use), 6 hr [4]: 0.65; 590 nm absorbance normalized to zero hour (substrate use), 7 hr [4]: 0.65; 590 nm absorbance normalized to zero hour (substrate use), 8 hr [4]: 0.60; 590 nm absorbance normalized to zero hour (substrate use), 9 hr [4]: 0.52; 590 nm absorbance normalized to zero hour (substrate use), 10 hr [4]: 0.57; 590 nm absorbance normalized to zero hour (substrate use), 11 hr [4]: 0.61; 590 nm absorbance normalized to zero hour (substrate use), 0 hr [3]: 1.00; 590 nm absorbance normalized to zero hour (substrate use), 9 hr [3]: 0.52; 590 nm absorbance normalized to zero hour (substrate use), 10 hr [3]: 0.57; 590 nm absorbance normalized to zero hour (substrate use), 11 hr [3]: 0.61
